Reference: publication PMC9202104 (BMC Biology, 2022)
Where two headings read alike, the source gives them in different places.

Assays:
[1] = test system: ZIKV human strain PAN2016 (2016/Panama); assay: Plaque assay, inhibition of ZIKV infection (strain PAN2016); settings: for SI (CC50/IC50): CC50 Vero E6 / IC50 ZIKV PAN2016
Protocol: (§1) After removal of the unbound compounds by centrifugation (after addition of 3% PEG-6000), ZIKV was incubated with Vero E6 cells in 24-well plates at 37°C for 1 h. The cells were then washed with PBS, overlaid with DMEM containing 1% carboxymethyl cellulose and 2% FBS, and cultured at 37°C for 4–5 days, followed by being stained with 0.5% crystal violet. […] Plaques in each well were calculated, and IC50 of compounds for each compound was calculated using the CalcuSyn computer program.

[2] = test system: ZIKV mosquito strain MEX 2-81; assay: Plaque assay, inhibition of ZIKV infection (strain MEX 2-81); assay type: cell-based; settings: Zika virus, Vero C1008, read-out: IC50 MEX 2-81
Protocol: as §1

[3] = test system: ZIKV rhesus macaque strain MR 766; assay: Plaque assay, inhibition of ZIKV infection (strain MR 766); assay type: cell-based; settings: Zika virus, Vero C1008, read-out: IC50 MR 766
Protocol: as §1

ZIKV human strain FLR = assay: Plaque assay, inhibition of ZIKV infection (strain FLR); assay type: cell-based; settings: Zika virus, Vero C1008, read-out: IC50 FLR
Protocol: as §1

[4] = test system: ZIKV human strain R103451; assay: Plaque assay, inhibition of ZIKV infection (strain R103451); assay type: cell-based; settings: Zika virus, Vero C1008, read-out: IC50 R103451
Protocol: as §1

[5] = test system: ZIKV human strain PRVABC59; assay: Plaque assay, inhibition of ZIKV infection (strain PRVABC59); assay type: cell-based; settings: Zika virus, Vero C1008, read-out: IC50 PRVABC59
Protocol: as §1

[6] = test system: ZIKV human strain PLCal_ZV; assay: Plaque assay, inhibition of ZIKV infection (strain PLCal_ZV); assay type: cell-based; settings: Zika virus, Vero C1008, read-out: IC50 PLCal_ZV
Protocol: as §1

[7] = test system: ZIKV human strain IbH 30656; assay: Plaque assay, inhibition of ZIKV infection (strain IbH 30656); assay type: cell-based; settings: Zika virus, Vero C1008, read-out: IC50 IbH 30656
Protocol: as §1

[8] = test system: 8 human ZIKV strains (PAN2016, R116265, PAN2015, FLR, R103451, PRVABC59, PLCal_ZV, IbH 30656); assay: microbe, parasite or virus in culture; assay type: cell-based; settings: Zika virus, read-out: Average IC50 (human strains)
Protocol: as §1

[9] = Cytotoxicity, Cell Counting Kit-8, Vero E6 cells; assay type: cell-based; settings: African green monkey
Protocol: (§2) Briefly, compounds at 2-fold serial dilutions were added to the respective cells (2.0×10^4/well) pre-seeded in 96-well plates. The cells were cultured at 37°C in the presence of 5% CO2 for 3 days, […] incubated with CCK8 solution, followed by measurement of absorbance at 450 nm (A450 value), using a microplate reader (Infinite F200PRO, Tecan, Morrisville, NC, USA). CC50 of compounds was calculated using the CalcuSyn program.

Vero E6 cells = assay: Cytotoxicity, Cell Counting Kit-8, Vero E6 cells; assay type: cell-based; settings: African green monkey, 3 days
Protocol: as §2

in vitro = assay type: cell-based; settings: rhesus monkey
Protocol: as §2

DENV-1-V1792 = assay: Plaque assay, inhibition of DENV-1 infection in LLC-MK2 cells; assay type: cell-based; settings: Dengue virus, DENV1
DENV-2-V594 = assay: Plaque assay, inhibition of DENV-2 infection in LLC-MK2 cells; assay type: cell-based; settings: Dengue virus, DENV2
DENV-3-V1043 = assay: Plaque assay, inhibition of DENV-3 infection in LLC-MK2 cells; assay type: cell-based; settings: Dengue virus, DENV3
DENV-4-PR-06-65-740 = assay: Plaque assay, inhibition of DENV-4 infection in LLC-MK2 cells; assay type: cell-based; settings: Dengue virus, DENV4
[10] = test system: ZIKV human strain R103451; assay: Lethal ZIKV challenge in adult Ifnar1−/− mice, survival and weight; assay type: in vivo; settings: ZIKV R103451 200 PFU
Protocol: (§3) Briefly, 7–8-week-old male mice were used, and two separate experiments were performed. […] These mice were i.p. infected with ZIKV (human strain R103451, 200 PFU/mouse) and observed daily for weight changes and survival until 21 dpi. […] Five days later, these mice were sacrificed, and their tissues, including the heart, testis, eye, kidney, and brain, were collected for detection of viral titers by plaque assay, or apoptosis by immunofluorescence staining. Mice losing 20% of initial weight with severe symptoms, including hind limb weakness and paralysis, or 25% of initial weight, were humanely euthanized with an overdose isoflurane in a Bell Jar, followed by cervical dislocation.

[11] = test system: ZIKV human strain PAN2016; assay: ZIKV challenge in adult Ifnar1−/− mice, tissue viral titers and immunofluorescence; assay type: in vivo; settings: 20 mg/kg i.p.; ZIKV PAN2016 200 PFU; 5 dpi; compared to DMSO-treated mice
Protocol: as §3
Plaque assay was used to detect viral titers in ZIKV-infected tissues. Briefly, tissues were homogenized with cold culture medium (DMEM + 2% FBS) and then centrifuged (2000 g at 4°C for 10 min). Supernatants were serially diluted to infect Vero E6 cells in 24-well plates. ZIKV titers in tissues were measured from ~40 mg of samples; thus, the detection limit was about 25 PFU/g of tissues.
Immunofluorescence staining was carried out to detect ZIKV and caspase-3 signals in ZIKV-infected mouse tissues. Briefly, tissues were fixed in 4% formaldehyde, embedded in paraffin, and sectioned. The tissue sections were deparaffinized, fixed, and permed using the FIX and PERM Cell Permeabilization Kit (Thermo Fisher Scientific, Waltham, MA, USA). After blocking with 5% BSA, the tissue slides were incubated at 37°C 2 h with ZIKV EDIII-specific human mAb (ZV-67, 1:100, Absolute Antibody, Boston, MA, USA), or rabbit anti-active caspase-3 antibody (1:100, Abcam). The slides were washed with PBS and incubated for 30 min with anti-human FITC antibody (1:100, for ZIKV), or anti-rabbit Alexa Fluor 647 antibody (1:100, for caspase-3). The slides were then counterstained for nuclei, using DAPI (300 nM, Thermo Fisher Scientific, Waltham, MA, USA) for 5 min, and mounted in VectaMount Permanent Mounting Medium (Vector Laboratories, CA, USA). The slides were analyzed using a confocal microscope (Zeiss LSM 880) and ZEN software, and fluorescent signals were quantified by ImageJ software.

DENV-2 human strain V594 = assay: DENV-2 challenge in Ifnar1−/− mice, flow cytometry titers; assay type: in vivo; settings: C6/36 cells, flow cytometry, 3 dpi, 20 mg/kg i.p., representative image
Protocol: Three days after infection, sera and tissues, including the brain, kidney, and heart, were collected and assessed for DENV infection using a flow cytometry assay, as described below. Tissues were freshly homogenized with cold culture medium (EMEM + 2% FBS) and centrifuged at 4°C and 2000 g for 10 min. Serially diluted tissue supernatants and sera were added to C6/36 cells, as described below. DENV titers in tissues or sera were assessed from ~20 mg of tissue samples, or 25 μl of sera, and used for subsequent flow cytometry analysis.
Flow cytometry assay was carried out to analyze DENV-2 titers in the supernatants of homogenized tissues and sera from DENV-2-infected mice collected above. Briefly, homogenized tissue supernatants or sera were added to C6/36 cells (5×10^5 cells/well) pre-seeded in 24-well plates which the culture medium was removed, and the cells were incubated for 1 h (28°C, 5% CO2). After incubation, the cells were washed with PBS, incubated with EMEM containing 2% FBS, and then cultured for 3 days as described above. After further removal of medium, the cells were digested, washed with PBS, and resuspended in FIX/PERM solution (Tonbo Biosciences, San Diego, CA, USA), followed by incubation at 4°C for 1 h in the dark. The cells were then sequentially incubated with mouse anti-flavivirus mAb 4G2 (2 μg/ml) at 37°C for 1 h and FITC-labeled anti-mouse IgG (0.5 mg/ml, BioLegend, San Diego, CA, USA) at 37°C for 30 min, followed by analysis using a FACScan flow cytometer and Summit software. Viral titers (infectious units/ml or infectious units/g) were calculated using the formula ((% of infected cells)×(total number of cells)×(dilution factor)/(amount of inoculum added to cells)).

ZIKV infection = settings: read-out: IC50 against ZIKV infection (reported); cited from earlier work
[12] = Zika virus, Vero C1008, in Homo sapiens, read-out: IC50 against infection of ZIKV PAN2016, plaque assay, Vero E6 cells

Cc1cc2c(C(C)C)c(O)c(O)c(C=O)c2c(O)c1-c1c(C)cc2c(C(C)C)c(O)c(O)c(C=O)c2c1O [Gossypol, reference compound]
IC50 [1, 12]: 3.8 µM
IC50 ([1]; read-out: IC50 against infection of ZIKV PAN2016, plaque assay, Vero E6 cells): 3.78 ± 0.3 µM
IC50 [2]: 2.9 µM
IC50 [3]: 4.1 µM
IC50 (ZIKV human strain FLR): 0.7 µM
IC50 [4]: 3.1 µM
IC50 [5]: 4.6 µM
IC50 [6]: 2.9 µM
IC50 [7]: 3.4 µM
IC50 [8]: 3.4 µM
CC50 at 3 days ([9]; CC50 Vero E6): 14.5 µM
CC50 (Vero E6 cells): 14.49 ± 0.07 µM
CC50 at 3 days (in vitro): 19.1 ± 1.09 µM
IC50 (DENV-1-V1792): 2.06 ± 0.13 µM
IC50 (DENV-2-V594): 1.91 ± 0.01 µM
IC50 (DENV-3-V1043): 3.42 ± 0.11 µM
IC50 (DENV-4-PR-06-65-740): 2.83 ± 0.07 µM
Mice protected from death (survival) ([10]; 20 mg/kg i.p. 12 h before and 6, 24, 48 h post-infection, observed 21 days): no mice treated with gossypol survived at 6 dpi
Weight loss ([10]; 20 mg/kg i.p., ST087010 figure during 6–12 dpi): increased weight loss
Viral titers in the heart, kidney, and brain [11]: significantly higher
DENV-2 in brain, percentage of infected cells (DENV-2 human strain V594): 3.6%
DENV-2 in heart, percentage of infected cells (DENV-2 human strain V594): 3.8%
DENV-2 in kidney, percentage of infected cells (DENV-2 human strain V594): 4.1%
DENV-2 in sera, percentage of infected cells (DENV-2 human strain V594): 50.9%

CC(=O)Oc1ccccc1C(=O)Nc1ncc([N+](=O)[O-])s1 [Nitazoxanide]
IC50 (ZIKV infection): 15.9 µM

Cc1cc2c(c(O)c1-c1c(C)cc3c(c1O)/C(=C/NCCO)C(=O)C(O)=C3C(C)C)/C(=C/NCCO)C(=O)C(O)=C2C(C)C [ST004331]
SI (CC50/IC50) [1]: 1.20
IC50 [1, 12]: 35.02 ± 0.35 µM
CC50 at 3 days ([9]; CC50 Vero E6): 42.3 ± 1.17 µM

Cc1cc2c(c(O)c1-c1c(C)cc3c(c1O)C(C=C1C(=O)NC(=O)NC1=O)C(=O)C(O)=C3C(C)C)C(C=C1C(=O)NC(=O)NC1=O)C(=O)C(O)=C2C(C)C (stereo not shown) [ST004335]
SI (CC50/IC50) [1]: 2.7
IC50 [1, 12]: 27.4 ± 2.5 µM
CC50 at 3 days ([9]; Vero E6 cells, CCK8, 3 days, read-out: CC50 Vero E6): 73.9 ± 1.68 µM

Cc1cc2c(c(O)c1-c1c(C)cc3c(c1O)/C(=C/NCc1cccnc1)C(=O)C(O)=C3C(C)C)/C(=C/NCc1cccnc1)C(=O)C(O)=C2C(C)C [ST005135]
SI (CC50/IC50) [1]: 2.97
IC50 [1, 12]: 35 ± 2.86 µM
CC50 at 3 days ([9]; CC50 Vero E6): 104 ± 2.2 µM
